Earlier results on one compound are cited in patent publication US11450405B2, “Techniques for modeling parathyroid gland functionality and calcimimetic drug activity” (Fresenius Medical Care Holdings, Inc., priority 2018, dated 2022).

Structures are written as SMILES. Like-named read-outs stand apart in the source and are kept apart here.

The test system of one series is PTH concentration. The following applies: after the administration of cinacalcet.
For series [1] the following is noted: for effect of hemodialysis on the pharmacokinetics: hemodialysis patients.
The mark [2] stands for this setting: listed as Cinacalcet hydrochloride.

For `C[C@@H](NCCCc1cccc(C(F)(F)F)c1)c1cccc2ccccc12` [cinacalcet], the “fraction of the drug in the plasma that is protein bound” value is on record as “Around 95%”. In the series with PTH concentration, the “time after dosing at which PTH concentration reaches a minimum” value is 2 to 3 h. For the same compound, in series [1] (administration with food), the “bio-availability on administration with food” value is “higher”, the “peak concentrations on administration with food” value is “higher” and the “total exposure values on administration with food” value is given as “higher”. In addition, in series [1] (following oral administration), the “time at which plasma concentration peaks” value was 2 to 6 h. Besides, the “effect of hemodialysis on the pharmacokinetics” value in series [1] is reported as “negligible”. In series [1] (setting [2]), the “effect of hemodialysis on the pharmacokinetics” value is “not altered”. The “higher terminal half-life values in hepatic impairment” value in series [1] (moderate to severe hepatic impairment) was 40-70%. In addition, in series [1] (oral administration), the absolute bioavailability is reported as 20-25% and the absorption is given as approximately 100%. Besides, in series [1] (single 75 mg dose), the “Bio (bioavailability), reference range” value is 20-25%; the “VD, reference range” value is 1000 to 1250 L; the “half-life of distribution t1/2^D, reference value” is 6 h; the “terminal half-life, reference range” value was 30 to 40 h. In addition, the “tmax, reference range” value in series [1] (single 75 mg dose) is 1 to 6 h. Further, the “Cmax, mean reference value” in series [1] (single 75 mg dose, SD 9.4) is given as 26.6 ng/mL. Also, the “mean apparent oral clearance rate CL/F” value in series [1] (single 75 mg dose, SD 148) is recorded as 314 L/h. In series [1] (single oral dose of 75 mg), the “apparent oral clearance rate CL/F (target)” value is recorded as “around 314 L/h”, the “apparent volume of distribution at steady state VD (target)” value was “around 1000 L”, the “distribution half-life tD (target)” value was 6 h and the “time until the maximum plasma concentration is reached (target)” value is given as “around 2.3 hours”. In addition, in series [1] (steady state), the “volume of distribution at steady state” value was 1000 L. Besides, the “fraction of the drug in the plasma that is protein bound” value under setting [2] was approximately 95%.
